According to ChEMBL document CHEMBL5113491, “Discovery of N-benzylarylamide derivatives as novel tubulin polymerization inhibitors capable of activating the Hippo pathway” (Eur J Med Chem, 2022):
Active and inactive are the calls of the source. The rule behind the calls is not given here.

What was measured:
MGC-803 = assay: Antiproliferative activity against human MGC-803 cells assessed as inhibition of cell growth measured after 48 hrs by MTT assay; type: functional, cell-based; settings: MGC-803, 48 h
HCT-116 = assay: Antiproliferative activity against human HCT-116 cells assessed as inhibition of cell growth measured after 48 hrs by MTT assay; type: functional, cell-based; settings: HCT-116, 48 h
KYSE-450 = assay: Antiproliferative activity against human KYSE-450 cells assessed as inhibition of cell growth measured after 48 hrs by MTT assay; type: functional, cell-based; settings: KYSE-450, 48 h
[1] = Inhibition of porcine brain microtubule polymerization measured after 1 hrs by fluorescence based assay; parameters: species or system Sus scrofa
Sus scrofa = species: Sus scrofa; assay: Inhibition of porcine brain microtubule polymerization at 3 umol/L measured after 5 sec by fluorescence based assay; settings: dose 3.0 µmol/L

| Structure (SMILES) | IC50 (MGC-803) | IC50 (HCT-116) | inhibition (Sus scrofa) | IC50 (KYSE-450) | IC50 [1] |
| --- | --- | --- | --- | --- | --- |
| COc1ccc(CNc2cc(OC)c(OC)c(OC)c2)cc1N | 7970 nM | 8270 nM |  | 2210 nM |  |
| COc1ccc(CN(C(=O)CN=[N+]=[N-])c2cc(OC)c(OC)c(OC)c2)cc1O | 120 nM | 410 nM |  | 160 nM |  |
| COc1ccc(CNc2cc(OC)c(OC)c(OC)c2)cc1C | 56800 nM | 60800 nM |  | 73800 nM |  |
| C/C=C/C(=O)N(Cc1ccc(OC)c(OC)c1)c1cc(OC)c(OC)c(OC)c1 | 20100 nM | 32800 nM |  | 39100 nM |  |
| COc1ccc(/C=C\c2cc(OC)c(OC)c(OC)c2)cc1O [COMBRETASTATIN A4] | 8 nM | 10 nM |  | 12 nM | 6710 nM |
| C=C(C)C(=O)N(Cc1ccc(OC)c(O)c1)c1cc(OC)c(OC)c(OC)c1 | 390 nM | 200 nM |  | 200 nM |  |
| COc1cc2c(c(OC)c1OC)-c1ccc(OC)c(=O)cc1[C@@H](NC(C)=O)CC2 [COLCHICINE] | 62 nM | 81 nM |  | 77 nM |  |
| COc1ccc(CNc2cc(OC)c(OC)c(OC)c2)cc1[N+](=O)[O-] | 19400 nM | 18200 nM |  | 16800 nM |  |
| COc1ccc(CN(C(=O)C=C(C)C)c2cc(OC)c(OC)c(OC)c2)cc1O | 320 nM | 290 nM |  | 280 nM |  |
| COc1cc(NCc2cccc(O)c2)cc(OC)c1OC | 57600 nM | 67700 nM |  | 71300 nM |  |
| COc1ccc(N(Cc2cc(OC)c(OC)c(OC)c2)C(=O)CCl)cc1O | 24500 nM | 22500 nM |  | 29800 nM |  |
| C/C=C/C(=O)N(Cc1cccc(O)c1)c1cc(OC)c(OC)c(OC)c1 | 14100 nM | 6700 nM |  | 14700 nM |  |
| COc1ccc(CN(C(=O)C[Se]C#N)c2cc(OC)c(OC)c(OC)c2)cc1O | 270 nM | 310 nM |  | 280 nM |  |
| COc1ccc(CN(C(=O)CBr)c2cc(OC)c(OC)c(OC)c2)cc1O | 140 nM | 68 nM |  | 120 nM |  |
| C/C=C/C(=O)N(Cc1ccc(OC)c(N)c1)c1cc(OC)c(OC)c(OC)c1 | 150 nM | 300 nM |  | 310 nM |  |
| COc1ccc(CNc2cc(OC)c(OC)c(OC)c2)cc1Br | 29400 nM | 48100 nM |  | 39800 nM |  |
| COc1ccc(CNc2cc(OC)c(OC)c(OC)c2)cc1OC | 46200 nM | 50800 nM |  | 57200 nM |  |
| COc1cc(NCc2ccccc2)cc(OC)c1OC | > 80000 nM | > 80000 nM |  | > 80000 nM |  |
| COc1ccc(N(Cc2cc(OC)c(OC)c(OC)c2)C(=O)CN=[N+]=[N-])cc1O | 22400 nM | 38800 nM |  | 26100 nM |  |
| C=CC(=O)N(Cc1ccc(OC)c(O)c1)c1cc(OC)c(OC)c(OC)c1 | 62 nM | 98 nM |  | 160 nM |  |
| COc1ccc(CNc2cc(OC)c(OC)c(OC)c2)cc1O | 1490 nM | 3220 nM | Active | 1400 nM |  |
| COc1ccc(CN(C(=O)C(C)Br)c2cc(OC)c(OC)c(OC)c2)cc1O (centres undefined) | 120 nM | 140 nM |  | 160 nM |  |
| C/C=C/C(=O)N(Cc1ccc(OC)c(F)c1)c1cc(OC)c(OC)c(OC)c1 | 1650 nM | 1160 nM |  | 1400 nM |  |
| COc1ccc(CN(C(=O)C2CC2)c2cc(OC)c(OC)c(OC)c2)cc1O | 59 nM | 49 nM |  | 80 nM |  |
| COc1ccc(CNc2cc(OC)c(OC)c(OC)c2)cc1Cl | 46200 nM | 41700 nM |  | 47800 nM |  |
| COc1ccc(CN(C(=O)CCl)c2cc(OC)c(OC)c(OC)c2)cc1O | 84 nM | 250 nM |  | 210 nM |  |
| CC/C=C/C(=O)N(Cc1ccc(OC)c(O)c1)c1cc(OC)c(OC)c(OC)c1 | 58 nM | 63 nM |  | 72 nM |  |
| COc1ccc(NCc2cc(OC)c(OC)c(OC)c2)cc1O | 9590 nM | 5230 nM | Active | 4180 nM |  |
| COCC(=O)N(Cc1ccc(OC)c(O)c1)c1cc(OC)c(OC)c(OC)c1 | 79 nM | 230 nM |  | 460 nM |  |

Second part, led by results:

| IC50 (MGC-803) | IC50 (HCT-116) | inhibition (Sus scrofa) | Structure (SMILES) | IC50 (KYSE-450) | IC50 [1] |
| --- | --- | --- | --- | --- | --- |
| 14500 nM | 23500 nM |  | C/C=C/C(=O)N(Cc1ccc(OC)c(C)c1)c1cc(OC)c(OC)c(OC)c1 | 32900 nM |  |
| 6150 nM | 8450 nM |  | C/C=C/C(=O)N(Cc1cc(OC)c(OC)c(OC)c1)c1ccc(OC)c(O)c1 | 9160 nM |  |
| 11400 nM | 18400 nM |  | COc1ccc(CNc2cc(OC)c(OC)c(OC)c2)cc1 | 4890 nM |  |
| 6430 nM | 2800 nM |  | C/C=C/C(=O)N(Cc1ccc(OC)c(Br)c1)c1cc(OC)c(OC)c(OC)c1 | 10500 nM |  |
| 49600 nM | 38100 nM |  | COC(=O)c1cc(CNc2cc(OC)c(OC)c(OC)c2)ccc1OC | 41100 nM |  |
| 160 nM | 520 nM |  | COc1ccc(CN(C(=O)CO)c2cc(OC)c(OC)c(OC)c2)cc1O | 370 nM |  |
| 39700 nM | 32200 nM |  | COc1ccc(CNc2cc(OC)c(OC)c(OC)c2)cc1F | 46200 nM |  |
| > 80000 nM | > 80000 nM |  | COc1cc(NCc2ccc(Br)cc2)cc(OC)c1OC | > 80000 nM |  |
| > 80000 nM | > 80000 nM |  | COc1cc(NCc2ccc(Cl)cc2)cc(OC)c1OC | > 80000 nM |  |
| 70 nM | 95 nM |  | CCC/C=C/C(=O)N(Cc1ccc(OC)c(O)c1)c1cc(OC)c(OC)c(OC)c1 | 57 nM |  |
| 50 nM | 61 nM |  | CCC(=O)N(Cc1ccc(OC)c(O)c1)c1cc(OC)c(OC)c(OC)c1 | 98 nM |  |
| 79 nM | 270 nM |  | COc1ccc(CN(C(C)=O)c2cc(OC)c(OC)c(OC)c2)cc1O | 160 nM |  |
| 7100 nM | 1420 nM |  | C/C=C/C(=O)N(Cc1ccc(OC)c(Cl)c1)c1cc(OC)c(OC)c(OC)c1 | 10100 nM |  |
| 66 nM | 170 nM |  | CCCCC(=O)N(Cc1ccc(OC)c(O)c1)c1cc(OC)c(OC)c(OC)c1 | 300 nM |  |
| 140 nM | 180 nM |  | C/C=C/C=C/C(=O)N(Cc1ccc(OC)c(O)c1)c1cc(OC)c(OC)c(OC)c1 | 180 nM |  |
| 210 nM | 310 nM |  | COc1ccc(CN(C(=O)C(C)C)c2cc(OC)c(OC)c(OC)c2)cc1O | 390 nM |  |
| 590 nM | 670 nM |  | C/C=C/C(=O)N(Cc1ccc(OC)c([N+](=O)[O-])c1)c1cc(OC)c(OC)c(OC)c1 | 510 nM |  |
| 450 nM | 500 nM |  | C/C=C/C(=O)N(Cc1ccc(OC)cc1)c1cc(OC)c(OC)c(OC)c1 | 420 nM |  |
| 71 nM | 59 nM |  | COc1ccc(CN(C(=O)/C=C/CBr)c2cc(OC)c(OC)c(OC)c2)cc1O | 100 nM |  |
| 140 nM | 150 nM |  | COc1ccc(CN(C(=O)CCCl)c2cc(OC)c(OC)c(OC)c2)cc1O | 110 nM |  |
| > 80000 nM | > 80000 nM |  | COc1cc(NCc2ccc(C)cc2)cc(OC)c1OC | > 80000 nM |  |
| 170 nM | 310 nM |  | C#CC(=O)N(Cc1ccc(OC)c(O)c1)c1cc(OC)c(OC)c(OC)c1 | 570 nM |  |
| 540 nM | 220 nM |  | COc1ccc(CN(C(=O)CCCCCl)c2cc(OC)c(OC)c(OC)c2)cc1O | 770 nM |  |
